# In patent US20150328245A1, “Agents for Eliminating Tumour-Initiating Cells” (priority 2012, published 2015):
# Experiment: In vivo maximum tolerated dose assay for compound I-2
# Set-up: species or system BALB/c mice
# Description: In vivo maximum tolerated dose (MTD) toxicity assay was carried out to evaluate the highest dose of a pharmaceutical treatment that will produce the desired effect without unacceptable toxicity. The purpose of administering MTD is to determine whether long-term exposure to a compound might lead to unacceptable adverse health effects in a subject, when the level of exposure is not sufficient to cause premature mortality due to short-term toxic effects.
# An exemplary procedure for the in vivo maximum tolerated dose toxicity assay follows. A statistically appropriate number of FEMALE BALB/c MICE were interperitoneally treated with the compound I-2 at three different dose levels 3 mg/kg, 1 mg/kg, and 0.3 mg/kg. Body weight and clinical sign of all the animals were observed daily during dosing and post dosing period.
smiles,measurement,setting,value
COc1cc2c(OC3OCC(OC)C(OC)C3O)c3c(c(-c4ccc5c(c4)OCO5)c2cc1OC)C(=O)OC3 (centres unmarked) [I-2],toxicity finding of the given dose,0.3 mg/kg q7d×4 i.p.,safe
same,toxicity finding of the given dose,1 mg/kg q7d×4 i.p.,safe
same,mortality,3 mg/kg q7d×4 i.p.,more than one mortality
same,toxicity finding of the given dose,3 mg/kg q7d×4 i.p.,toxic
same,Mean body weight,"G1 3 mg/kg q7dX4, day 1",2 g
same,Mean body weight,"G1 3 mg/kg q7dX4, day 2",2 g
same,Mean body weight,"G1 3 mg/kg q7dX4, day 3",2 g
same,Mean body weight,"G1 3 mg/kg q7dX4, day 4",2 g
same,Mean body weight,"G1 3 mg/kg q7dX4, day 5",2 g
same,Mean body weight,"G1 3 mg/kg q7dX4, day 6",2 g
same,Mean body weight,"G1 3 mg/kg q7dX4, day 7",2 g
same,Mean body weight,"G1 3 mg/kg q7dX4, day 8",2 g
same,Mean body weight,"G1 3 mg/kg q7dX4, day 9",2 g
same,Mean body weight,"G1 3 mg/kg q7dX4, day 10",2 g
same,Mean body weight,"G1 3 mg/kg q7dX4, day 11",2 g
same,Mean body weight,"G1 3 mg/kg q7dX4, day 12",2 g
same,Mean body weight,"G1 3 mg/kg q7dX4, day 13",2 g
same,Mean body weight,"G1 3 mg/kg q7dX4, day 14",2 g
same,Mean body weight,"G1 3 mg/kg q7dX4, day 15",2 g
same,Mean body weight,"G1 3 mg/kg q7dX4, day 16",2 g
same,Mean body weight,"G1 3 mg/kg q7dX4, day 17",2 g
same,Mean body weight,"G1 3 mg/kg q7dX4, day 18",2 g
same,Mean body weight,"G1 3 mg/kg q7dX4, day 19",2 g
same,Mean body weight,"G1 3 mg/kg q7dX4, day 20",2 g
same,Mean body weight,"G1 3 mg/kg q7dX4, day 21",2 g
same,Mean body weight,"G1 3 mg/kg q7dX4, day 22",2 g
same,Mean body weight,"G1 3 mg/kg q7dX4, day 23",2 g
same,Mean body weight,"G1 3 mg/kg q7dX4, day 24",2 g
same,Mean body weight,"G1 3 mg/kg q7dX4, day 25",2 g
same,Mean body weight,"G1 3 mg/kg q7dX4, day 26",2 g
same,Mean body weight,"G1 3 mg/kg q7dX4, day 27",2 g
same,Mean body weight,"G1 3 mg/kg q7dX4, day 28",2 g
same,Mean body weight,"G1 3 mg/kg q7dX4, day 29",2 g
same,Mean body weight,"G2 1 mg/kg q7dX4, day 1",23. g
same,Mean body weight,"G2 1 mg/kg q7dX4, day 2",23. g
same,Mean body weight,"G2 1 mg/kg q7dX4, day 3",23. g
same,Mean body weight,"G2 1 mg/kg q7dX4, day 4",24. g
same,Mean body weight,"G2 1 mg/kg q7dX4, day 5",24. g
same,Mean body weight,"G2 1 mg/kg q7dX4, day 6",24. g
same,Mean body weight,"G2 1 mg/kg q7dX4, day 7",24. g
same,Mean body weight,"G2 1 mg/kg q7dX4, day 8",24. g
same,Mean body weight,"G2 1 mg/kg q7dX4, day 9",24. g
same,Mean body weight,"G2 1 mg/kg q7dX4, day 10",24. g
same,Mean body weight,"G2 1 mg/kg q7dX4, day 11",24. g
same,Mean body weight,"G2 1 mg/kg q7dX4, day 12",24. g
same,Mean body weight,"G2 1 mg/kg q7dX4, day 13",25. g
same,Mean body weight,"G2 1 mg/kg q7dX4, day 14",24. g
same,Mean body weight,"G2 1 mg/kg q7dX4, day 15",24. g
same,Mean body weight,"G2 1 mg/kg q7dX4, day 16",25. g
same,Mean body weight,"G2 1 mg/kg q7dX4, day 17",25. g
same,Mean body weight,"G2 1 mg/kg q7dX4, day 18",25. g
same,Mean body weight,"G2 1 mg/kg q7dX4, day 19",25. g
same,Mean body weight,"G2 1 mg/kg q7dX4, day 20",25. g
same,Mean body weight,"G2 1 mg/kg q7dX4, day 21",25. g
same,Mean body weight,"G2 1 mg/kg q7dX4, day 22",25. g
same,Mean body weight,"G2 1 mg/kg q7dX4, day 23",25. g
same,Mean body weight,"G2 1 mg/kg q7dX4, day 24",25. g
same,Mean body weight,"G2 1 mg/kg q7dX4, day 25",25. g
same,Mean body weight,"G2 1 mg/kg q7dX4, day 26",26. g
same,Mean body weight,"G2 1 mg/kg q7dX4, day 27",25. g
same,Mean body weight,"G2 1 mg/kg q7dX4, day 28",25. g
same,Mean body weight,"G2 1 mg/kg q7dX4, day 29",25. g
same,Mean body weight,"G3 0.3 mg/kg q7dX4, day 1",2 g
same,Mean body weight,"G3 0.3 mg/kg q7dX4, day 2",2 g
same,Mean body weight,"G3 0.3 mg/kg q7dX4, day 3",2 g
same,Mean body weight,"G3 0.3 mg/kg q7dX4, day 4",2 g
same,Mean body weight,"G3 0.3 mg/kg q7dX4, day 5",2 g
same,Mean body weight,"G3 0.3 mg/kg q7dX4, day 6",2 g
same,Mean body weight,"G3 0.3 mg/kg q7dX4, day 7",2 g
same,Mean body weight,"G3 0.3 mg/kg q7dX4, day 8",2 g
same,Mean body weight,"G3 0.3 mg/kg q7dX4, day 9",2 g
same,Mean body weight,"G3 0.3 mg/kg q7dX4, day 10",2 g
same,Mean body weight,"G3 0.3 mg/kg q7dX4, day 11",2 g
same,Mean body weight,"G3 0.3 mg/kg q7dX4, day 12",2 g
same,Mean body weight,"G3 0.3 mg/kg q7dX4, day 13",2 g
same,Mean body weight,"G3 0.3 mg/kg q7dX4, day 14",2 g
same,Mean body weight,"G3 0.3 mg/kg q7dX4, day 15",2 g
same,Mean body weight,"G3 0.3 mg/kg q7dX4, day 16",2 g
same,Mean body weight,"G3 0.3 mg/kg q7dX4, day 17",2 g
same,Mean body weight,"G3 0.3 mg/kg q7dX4, day 18",2 g
same,Mean body weight,"G3 0.3 mg/kg q7dX4, day 19",2 g
same,Mean body weight,"G3 0.3 mg/kg q7dX4, day 20",2 g
same,Mean body weight,"G3 0.3 mg/kg q7dX4, day 21",2 g
same,Mean body weight,"G3 0.3 mg/kg q7dX4, day 22",2 g
same,Mean body weight,"G3 0.3 mg/kg q7dX4, day 23",2 g
same,Mean body weight,"G3 0.3 mg/kg q7dX4, day 24",2 g
same,Mean body weight,"G3 0.3 mg/kg q7dX4, day 25",2 g
same,Mean body weight,"G3 0.3 mg/kg q7dX4, day 26",2 g
same,Mean body weight,"G3 0.3 mg/kg q7dX4, day 27",2 g
same,Mean body weight,"G3 0.3 mg/kg q7dX4, day 28",2 g
same,Mean body weight,"G3 0.3 mg/kg q7dX4, day 29",2 g
same,body weight / growth pattern,group G1 3 mg/kg q7d×4,decreased body weight after first treatment then they showed normal growth pattern
same,Percentage Body weight change,"group G1 3 mg/kg q7d×4, day 2",−3.2%
same,body weight / growth pattern,group G2 1 mg/kg q7d×4,normal growth pattern throughout the experimental period
same,body weight gain compared to other treatment groups,group G2 1 mg/kg q7d×4,maximum body weight gain
same,body weight / growth pattern,group G3 0.3 mg/kg q7d×4,decreased body weight after first treatment then they showed normal growth pattern
same,body weight gain as compared to group G1,group G3 0.3 mg/kg q7d×4,marginal body weight gain
same,Percentage Body weight change,"group G3 0.3 mg/kg q7d×4, day 3",−3.8%
